# According to patent publication US9409961B2, “Cell penetrating peptides to target EIF4E” (Hoffmann-La Roche Inc., priority 2012, dated 2016):
# Square brackets hold non-standard residues; d marks the D form. Peptide text beside a SMILES is read from it. Nle = CCCC[C@H](N)C(=O)O
# How the values were obtained:
# human eIF4E = biological target: T1, human eIF4E (Homo sapiens, UniProt P06730); assay: biochemical assay of peptide binding to human eIF4E (displacement of biotin labeled 4G2 peptide)
# T1 construct: made in house
# T1 sequence (P06730 with tags, fused parts or gaps): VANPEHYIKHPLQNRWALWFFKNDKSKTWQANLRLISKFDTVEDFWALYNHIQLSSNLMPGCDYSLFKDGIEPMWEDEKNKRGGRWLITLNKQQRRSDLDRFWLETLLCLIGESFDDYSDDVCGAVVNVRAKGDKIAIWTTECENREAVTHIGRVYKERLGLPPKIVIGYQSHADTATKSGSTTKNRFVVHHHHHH
# Experimental: A biochemical assay was run to test peptide binding to human eIF4E.
# Human eIF4E (aa 28-217, SEQ ID NO: 87) with a C-terminal His tag (HH-eIF4E, SEQ ID NO: 88) was expressed in E. coli in inclusion bodies. The protein was solubilized with 8 M urea and purified under denaturing conditions using nickel-charged HisTrap HP columns (GE Healthcare). The protein was refolded by diluting to approximately 0.25 mg/mL with 6 M urea, 20 mM Hepes pH 7.0, 500 mM NaCl, 1 mM DTT, 1 mM EDTA, and 0.5 M arginine.HCl, and then dialyzing overnight into the same buffer without the urea. The protein was further dialyzed into 20 mM Hepes pH 6.5, 50 mM NaCl, 1 mM EDTA, and 1 mM DTT, filtered, and then concentrated using Hitrap SP sepharose FF columns (GE Healthcare). The protein was dialyzed into 20 mM Hepes pH 7.0, 500 mM NaCl, 5 mM DTT, and 10% glycerol and stored at −80° C. until use.
# Test peptides (1.6 mM stock in DMSO) were diluted 3 fold in series in DMSO and solutions were diluted 4 fold in Assay Buffer (50 mM NaPi, pH 6.5, 50 mM KCl, 1 mM DTT, 0.004% NP40 and 0.5 mg/ml gammaglobulin). Six microliters per well of diluted peptide solutions and 12 microliters per well of 187.5 nM HH-eIF4E in Assay Buffer were added to 384-well polypropylene microplates (Matrix, Thermal Scientific). Twelve microliters per well of 187.5 nM biotin labeled 4G2 peptide (Ac-[…]Aha-Bio)-NH2 (SEQ ID NO: 91) 1:2 TFA) in Assay Buffer was added. The samples were incubated at room temperature for 20 minutes.
# Six microliters per well of 4.8 nM Eu-streptavidin (Columbia Biosciences) and 48 nM Allophycocyanin-anti His antibody (Columbia Biosciences) in Assay Buffer (without DTT) were then added and the samples were incubated at room temperature for 30 min. Assay signals were monitored by reading emission fluorescence at 665 nm on an Envision Reader (PerkinElmer Life and Analytical Sciences). IC50 values were calculated using Condoseo software (Genedata AG, Basel, Switzerland).
# [1] = system: downstream target gene expression; assay: downstream target gene expression and apoptosis (FIG. 2); assay type: cell-based
# [2] = stability in human plasma; assay type: in vitro ADME; details: pH 7.4, Conc. 10 uM, 37° C.
# Experimental: (§1) The following study was conducted to assess the stability of the compound of Examples 2-4 (SEQ ID NOS: 9, 10 and 11) in Hannover Wistar rat and human plasma after 4 and 24 hours. Approximately, 2.0 mg of the compound of Examples 2-4 (SEQ ID NOS 9, 10 and 11) was weighed out and placed in a 4 mL amber vial. To this was added 1.0 mL DMSO. The vial was carefully vortexed to produce a solution of approximately 600 μM.
# (§2) Hannover Wistar rat plasma and human plasma (anti-coagulant sodium EDTA) were pre-warmed to 37° C. for 30 minutes in a water bath. The pH of both plasmas was adjusted to pH7.4. 1.5 mL microcentrifuge vials were used.
# (§3) The stock solution of the compound of Examples 2-4 was diluted into rat or human plasma to a final concentration of 10 μM. The two vials were gently vortexed ensuring proper mixing.
# (§4) Six new vials were labeled as follows: rat T0, rat T4, rat T24, human T0, human T4, human T24. To each of these vials, 50 μL of treated plasma was added. The T4 and T24 vials were capped and placed in a 37° C. incubator for 4 and 24 hours, respectively.
# (§5) To each of the two T0 vials, 50 μL of Sorensen buffer and 200 μL 1.0% acetic acid in acetonitrile were added. The T0 vials were then capped, vortexed and centrifuged at 10000×g for 10 minutes. Upon completion of centrifugation, 100 μL of the supernatant of each vial was added to a separate well in a 96-well injection block. 200 µL of 0.1% acetic acid in Milli-Q® water (Millipore) was then added to each well.
# (§6) The above procedure as written with respect to the T0 vials was repeated for the two T4 vials at the 4 hour time point and the T24 vials at the 24 hour time point. With each time point a fresh T0 sample was prepared, as described above, to ensure there was no sample degradation.
# (§7) All samples were analyzed by LC/MS/MS. The resulting chromatographs were processed to obtain peaks areas for each sample. The percent of compound remaining at each time point as compared with the amount present in the comparison T0 sample was calculated.
# stability in rat plasma = assay type: in vitro ADME; details: Hannover Wistar, pH 7.4, Conc. 10 uM, 37° C.
# Experimental: as §1, §2, §3, §4, §5, §6, §7
# [3] = Binding affinities expressed as IC50, HH-eIF4E, biotin labeled 4G2 peptide
# [4] = IC50 (μM), Table 2a, cell penetrating peptides with the Y----LL-F and YWLLALFVY motifs
# [5] = IC50 (μM), Table 2, cell-penetrating peptides with the Y----LL-F motif
molecule,measurement,setting,value
Ac-MANLAYWLLALFVYMWTDLRLFKKRPKP-NH2 [SEQ ID NO: 10],IC50,human eIF4E; [3],6.61 µM
same,IC50,human eIF4E; [4],1.7 µM
same,apoptosis,[1],induce apoptosis
same,downstream target gene expression,[1],inhibit downstream target gene expression
same,"remaining at 4 h, 10 µM",[2],99.1%
same,"remaining at 24 h, 10 µM",[2],45.2%
same,"remaining at 4 h, 10 µM",stability in rat plasma,102%
same,"remaining at 24 h, 10 µM",stability in rat plasma,23.7%
CCCC[C@H](NC(=O)[C@H](Cc1ccc(O)cc1)NC(=O)[C@@H](NC(=O)[C@H](Cc1ccccc1)NC(=O)[C@H](CC(C)C)NC(=O)[C@H](C)NC(=O)[C@H](CC(C)C)NC(=O)[C@H](CC(C)C)NC(=O)[C@H](Cc1c[nH]c2ccccc12)NC(=O)[C@H](Cc1ccc(O)cc1)NC(=O)[C@H](C)NC(=O)[C@H](CC(C)C)NC(=O)[C@H](CC(N)=O)NC(=O)[C@H](C)NC(=O)[C@H](CCSC)NC(C)=O)C(C)C)C(=O)N[C@@H](Cc1c[nH]c2ccccc12)C(=O)N[C@H](C(=O)N[C@@H](CC(=O)O)C(=O)N[C@@H](CC(C)C)C(=O)N[C@@H](CCCNC(=N)N)C(=O)N[C@@H](CC(C)C)C(=O)N[C@@H](Cc1ccccc1)C(=O)N[C@@H](CCCCN)C(=O)N[C@@H](CCCCN)C(=O)N[C@@H](CCCNC(=N)N)C(=O)N1CCC[C@H]1C(=O)N[C@@H](CCCCN)C(=O)N1CCC[C@H]1C(N)=O)[C@@H](C)O [SEQ ID NO: 39] (Ac-MANLAYWLLALFVY[Nle]WTDLRLFKKRPKP-NH2),IC50,human eIF4E; [4],1.75 µM
Ac-ANLAYWLLALFVYMWTDLRLFKKRPKP-NH2 [SEQ ID NO: 34],IC50,human eIF4E; [4],2.22 µM
Ac-MVKYKIASLLLFLFVAMWSDVALAKKRPKP-NH2 [SEQ ID NO: 17],IC50,human eIF4E; [5],12.5 µM
Ac-NLAYWLLALFVYMWTDLRLFKKRPKP-NH2 [SEQ ID NO: 35],IC50,human eIF4E; [4],5.04 µM
Ac-MANLAYWLLALFVYMFTDLRLFKKRPKP-NH2 [SEQ ID NO: 42],IC50,human eIF4E; [4],3.91 µM
Ac-MAKLKYWLLALFVYMWTDLLLFKKRPKP-NH2 [SEQ ID NO: 9],IC50,human eIF4E; [3],4.4 µM
same,apoptosis,[1],induce apoptosis
same,downstream target gene expression,[1],inhibit downstream target gene expression
same,"remaining at 4 h, 10 µM",[2],94.9%
same,"remaining at 24 h, 10 µM",[2],76.2%
same,"remaining at 4 h, 10 µM",stability in rat plasma,91.7%
same,"remaining at 24 h, 10 µM",stability in rat plasma,18.2%
Ac-MVKSKIYSWILLLFFAMWSDVGLCKKRPKP-NH2 [SEQ ID NO: 15],IC50,human eIF4E; [5],5.2 µM
Ac-WLLALFVYMWTDLRLFKKRPKP-NH2 [SEQ ID NO: 50],IC50,"human eIF4E; IC50 (μM), Table 3, cell-penetrating peptides without the Y----LL-F motif",2.36 µM
Ac-MAALAYWLLALFVYMWTDLLLFKKRPKP-NH2 [SEQ ID NO: 27],IC50,human eIF4E; [4],10.7 µM
Ac-YWLLALFVYMWTDLRLFKKRPKP-NH2 [SEQ ID NO: 37],IC50,human eIF4E; [4],2.9 µM
Ac-MANLAYWLLALFVYRWTDLRLFKKRPKP-NH2 [SEQ ID NO: 41],IC50,human eIF4E; [4],3.48 µM
